Data as given in patent publication US20120090043A1, “TARGETS FOR RETROVIRUS ASSOCIATED DISEASES” (priority 2009, published 2012).
Peptide text beside a SMILES is read from it. * marks the point of attachment. Cbz = O=C(OCc1ccccc1)*

Columns and labels:
[1] = test system: HTLV-1 LTR promoter transactivation by HTLV-1 Tax; test: Transactivation assay, HTLV-1 LTR luciferase reporter with HTLV-1 Tax; type: cell-based; conditions: HEK293 cells co-transfected with pHTLV1LTR-Luc, HTLV-1 Tax and the human ORF; relative luciferase activity 24 h post-transfection; positive if >=2 or <=0.5 and p<0.05
Description: (§1) Twenty-four hours post-transfection, cells were washed three times with PBS, lysed and luciferase activities determined from two independent transfection experiments in triplicate. We computed a paired t-test to assess the difference of the means between samples with and without the human interactor. For a trial to be considered positive, the relative luciferase activities has to be >=2 or <=0.5, and the p-value of the t-test<0.05.
Expression vectors encoding human ORFs and HIV-1 Tat or HTLV-1 Tax proteins were tested in a transactivation reporter assay against reporter plasmids harboring HIV-1 or HTLV-1 viral promoter sequences cloned upstream of the luciferase reporter gene. […] Wherever not expressly specified, constructs used herein were generally made by sub-cloning entry clones from the ORFeome V3.1 into suitable destination vectors.

[2] = test system: HIV-1 LTR promoter transactivation by HIV-1 Tat; test: Transactivation assay, HIV-1 LTR luciferase reporter with HIV-1 Tat; type: cell-based; conditions: HEK293 cells co-transfected with pHIV1LTR-Luc, HIV-1 Tat and the human ORF; relative luciferase activity 24 h post-transfection; positive if >=2 or <=0.5 and p<0.05
Description: as §1, with “The plasmids pHIV1LTR-Luc or pHTLV1LTR-Luc containing a luciferase reporter gene under the control of the HIV-1 or HTLV-1 LTR promoters and plasmids expressing either HIV-1 Tat or HTLV-1 Tax and each human ORF found to interact with viral proteins were transfected into 10^4 HEK293 cells using the calcium phosphate method. Twenty-four” for “Twenty-four”
Many HIV/HTLV-human interactions in our data set (130/212) involved the retroviral transactivator proteins HTLV-1 Tax (57/212), HTLV-2 Tax2 (49/212), HIV-1 Tat (10/212) and HIV-2 Tat (14/212). Human proteins interacting with viral transactivators likely influence Tat or Tax transactivation. Expression vectors encoding human ORFs and HIV-1 Tat or HTLV-1 Tax proteins were tested in a transactivation reporter assay against reporter plasmids harboring HIV-1 or HTLV-1 viral promoter sequences cloned upstream of the luciferase reporter gene. In the controls Tat or Tax respectively activated HIV or HTLV LTR-directed gene expression. Co-transfection of interacting human ORFs identified 71 proteins (54% of the 131 human targets in our data set) that regulated HIV (26.7% of targets), HTLV (37.4% of targets) or both (9.9% of targets) LTR promoter activation by Tat or Tax (see Tables 7 and 8; Table 13 below containing quantitative data on the regulation of transactivation). Wherever not expressly specified, constructs used herein were generally made by sub-cloning entry clones from the ORFeome V3.1 into suitable destination vectors.

[3] = test system: HTLV-1 transformed cell line (MT4); test: Quantitative RT-PCR of HTLV-1 mRNA in MT4 cells after γ-secretase (Notch pathway) inhibition; type: cell-based; conditions: 1 μM, 48 hours, vs vehicle (0.5% DMSO), mRNA relative to GAPDH
Description: FIG. 9 illustrates relative HTLV1-HBZ, -Gag and -Tax mRNA expression following MT4 cells treatment with vehicle (0.5% DMSO) or 1 μM of γ-secretase inhibitor L685,458. Viral mRNA expression data are calculated relative to GAPDH mRNA expression data as 2̂(CT(GAPDH)-CT(HBZ/Gag/Tax)) over three times triplicate experiments for each gene.
HTLV-1 transformed cell line (MT4) from Dr. Douglas Richman (Harada et al. Science, 1985, col. 229, p. 563-566) was obtained through the AIDS Research and Reference Reagent Program, Division of AIDS, NIAID, NIH. MT4 cells were cultured in RPMI supplemented with 10% fetal bovine serum and antibiotics. MT-4 cells were treated for 48 hours with a γ-secretase inhibitor (L-685,458) (Shearman et al. Biochemistry, 2000, vol. 39, 8698-8704). at 1 μM or vehicle (0.5% DMSO). Total RNA were then isolated by Trizol method, subjected to Dnase treatment and cDNAs synthesized using the RevertAid First Strand cDNA Synthesis kit according to the manufacturer instructions (Fermentas). Quantitative Real-time PCR for GAPDH, HBZ, Gag and Tax expression was performed on StepOne instrument (Applied Biosystem) using SYBR green dye (Eurogentec). Viral mRNA expression data are calculated relative to GAPDH mRNA expression data as 2̂(CT(GAPDH)—CT(HBZ/Gag/Tax)) over three times triplicate experiments for each gene, and differences were assessed through one-tailed Student's t-test.
To directly assess the involvement of the Notch pathway in viral infection, we treated HTLV-1 transformed cell line (MT4) with a γ-secretase inhibitor (GSI) (L-685,458) and tested whether inhibition of the Notch pathway could influence HTLV-1 expression in MT4 cell line.

[4] = test system: TRAF2; test: Western blot of HIV-1 Gag induced TRAF2 degradation in HEK293T cells; type: cell-based, human
Description: FIG. 8 illustrates (A) Western-blotting of HEK293T cell extracts transfected with expressing vectors for GST-TRAF2 or truncated mutants deltaTRAF2 and deltaRING and p55 GAG/GFP, as indicated. Cell extracts were immunobloted with anti-GST, anti-GFP and anti-actin antibodies. (B) Western-blotting of HEK293T cells transfected with expressing vectors for GST-TRAF2 or GST-deltaRING truncated mutant, p55 GAG/GFP and Myc-Ubiquitin, as indicated. Cell extracts were immunobloted with anti-GST, anti-Myc and anti-actin antibodies. (C) Cells were pretreated with the cathepsin B inhibitor CA-074Me (10 μM) or the proteasomal inhibitor MG-132 (1 μM) for 24 H. Cell lysates were analysed as in (B).
To further corroborate that HIV Gag protein targets TRAF2 for proteasomal degradation, we first co-expressed in HEK293 cells HIV-1 Gag and TRAF2 or its truncation mutants lacking the TRAF domain (ΔTRAF) required for upstream signaling, or lacking the RING domain (ΔRING) required for E3 ubiquitin ligase function and downstream signaling. […]
In the presence of HIV-1 Gag we observed reduction of TRAF2 and ΔTRAF protein levels but not with the RING domain truncated mutant (FIG. 8A). To test whether TRAF2-E3 ubiquitin ligase activity was affected by HIV1 Gag, we next co-transfected a Myc-Ubiquitin expressing vector and evaluated the levels of Myc-tagged cellular ubiquitylated proteins by immunoblotting. […]

Compound	HTLV_LTR transactiv. [1] [fold change]	HIV_LTR transactiv. [2] [fold change]	further results
OTX2: human host interactor protein, Gene ID 5015, expressed from transfected ORF vector	7.37		
PCBP1: human host interactor protein, Gene ID 5093, expressed from transfected ORF vector	0.44		
FXR2: human host interactor protein, Gene ID 9513, expressed from transfected ORF vector	0.38		
HOXA3: human host interactor protein, Gene ID 3200, expressed from transfected ORF vector	0.25	0.29	
KCTD1: human host interactor protein, Gene ID 284252, expressed from transfected ORF vector	0.42		
CC(C)C[C@H](NC(=O)[C@H](Cc1ccccc1)C[C@@H](O)[C@H](Cc1ccccc1)NC(=O)OC(C)(C)C)C(=O)N[C@@H](Cc1ccccc1)C(N)=O [L-685,458]			HTLV-1 Tax1 expression ([3]; p<0.003): significantly lowers; HTLV-1 Gag expression ([3]; p<0.04): significantly lowers; HTLV-1 HBZ expression ([3]; p<2.1E-5): significantly lowers
C8orf32: human host interactor protein, Gene ID 55093, expressed from transfected ORF vector	0.26		
LOC91661: human host interactor protein, Gene ID 91661, expressed from transfected ORF vector		0.16	
BHLHB2: human host interactor protein, Gene ID 8553, expressed from transfected ORF vector	0.20		
PSMF1: human host interactor protein, Gene ID 9491, expressed from transfected ORF vector	14.83		
ZMAT1: human host interactor protein, Gene ID 84460, expressed from transfected ORF vector		0.20	
HOXB9: human host interactor protein, Gene ID 3219, expressed from transfected ORF vector	3.69		
CRX: human host interactor protein, Gene ID 1406, expressed from transfected ORF vector		0.24	
UBE2I: human host interactor protein, Gene ID 7329, expressed from transfected ORF vector		3.34	
CC(C)C[C@@H](C=O)NC(=O)[C@H](CC(C)C)NC(=O)[C@H](CC(C)C)NC(=O)OCc1ccccc1 [MG132] (Cbz-Leu-Leu-Leu-aldehyde)			HIV1-Gag induced degradation of TRAF2 ([4]; FIG. 6): not inhibited; HIV-1 Gag induced degradation of TRAF2 ([4]; HEK293T cells pretreated with 1 μM for 24 H, FIG. 8C): could be blocked
NOS3: human host interactor protein, Gene ID 4846, expressed from transfected ORF vector	0.45		
DVL2: human host interactor protein, Gene ID 1856, expressed from transfected ORF vector		0.40	
